Measured values: patent US7329634B2, “3-Phenyl substituted 3-substituted-4ketolactams and ketolactones” (Bayer CropScience AG, priority 2003, dated 2008)

Assays:
Meloidogyne incognita = assay: Meloidogyne test; type: in vivo; conditions: 20 ppm; nematicidal action by formation of galls on lettuce roots; 100% = no galls
Description: • Solvents: 78 parts by weight of acetone • 1.5 parts by weight of dimethylformamide • Emulsifier: 0.5 part by weight of alkylaryl polyglycol ether
To produce a suitable preparation of active compound, 1 part by weight of active compound is mixed with the stated amounts of solvent and emulsifier, and the concentrate is diluted with water to the desired concentration.
Vessels are filled with sand, solution of active compound, Meloidogyne incognita egg/larvae suspension and lettuce seeds. The lettuce seeds germinate and the plants develop. On the roots, galls develop.
After the desired period of time, the nematicidal action is determined in % by the formation of galls. 100% means that no galls have been found; 0% means that the number of galls on the treated plants corresponds to that of the untreated control.

[1] = tested on: greenhouse red spider mite (Tetranychus urticae); assay: Tetranychus test (OP-resistant/spray treatment); type: in vivo; conditions: 100 ppm; spray treatment of bean leaf discs (Phaseolus vulgaris); OP-resistant
Description: Tetranychus Test (OP-Resistant/Spray Treatment)
• Solvents: 78 parts by weight of acetone • 1.6 parts by weight of dimethylformamide • Emulsifier: 0.5 part by weight of alkylaryl polyglycol ether
To produce a suitable preparation of active compound, 1 part by weight of active compound is mixed with the stated amounts of solvent and emulsifier, and the concentrate is diluted with emulsifier-containing water to the desired concentration.
Discs of the leaves of beans (Phaseolus vulgaris) which are infested by all stages of the greenhouse red spider mite (Tetranychus urticae) are sprayed with a preparation of active compound of the desired concentration.
After the desired period of time, the activity in % is determined. 100% means that all spider mites have been killed; 0% means that none of the spider mites have been killed.

With `CCc1cc(Br)cc(Br)c1C1(Cl)C(=O)NC(C)(C)C1=O` (centres unmarked) [Ex. I-1-1] the “Effect in % after 14d” value (Meloidogyne incognita) was 100% and the “Kill rate in % after 4d” value [1] was 80%.
